Test results published in the NIST ThermoML archive (doi:10.1021/je049685z).
± gives the expanded uncertainty stated by the source.

Legend:
[1] = Liquid
[2] = xn = mol fraction of the nth substance listed; settings: Liquid, x1 = 1

CCCO [propan-1-ol]
mass density ([1]; 303.15 K, 100 kPa): 795.6 ± 0.4 kg/m3 | mass density ([1]; 303.15 K, 5000 kPa): 799.5 ± 0.4 kg/m3 | mass density ([1]; 303.15 K, 10000 kPa): 803.4 ± 0.5 kg/m3 | mass density ([1]; 303.15 K, 15000 kPa): 807 ± 0.6 kg/m3 | mass density ([1]; 303.15 K, 20000 kPa): 810.5 ± 0.7 kg/m3 | mass density ([1]; 303.15 K, 25000 kPa): 813.9 ± 0.8 kg/m3 | mass density ([1]; 303.15 K, 30000 kPa): 817.2 ± 0.9 kg/m3 | mass density ([1]; 313.15 K, 100 kPa): 787.6 ± 0.4 kg/m3 | mass density ([1]; 313.15 K, 5000 kPa): 791.6 ± 0.5 kg/m3 | mass density ([1]; 313.15 K, 10000 kPa): 795.7 ± 0.5 kg/m3 | mass density ([1]; 313.15 K, 15000 kPa): 799.5 ± 0.6 kg/m3 | mass density ([1]; 313.15 K, 20000 kPa): 803.2 ± 0.7 kg/m3 | mass density ([1]; 313.15 K, 25000 kPa): 806.7 ± 0.8 kg/m3 | mass density ([1]; 313.15 K, 30000 kPa): 810.1 ± 0.9 kg/m3 | mass density ([1]; 323.15 K, 100 kPa): 779.1 ± 0.4 kg/m3 | mass density ([1]; 323.15 K, 5000 kPa): 783.4 ± 0.5 kg/m3 | mass density ([1]; 323.15 K, 10000 kPa): 787.7 ± 0.6 kg/m3 | mass density ([1]; 323.15 K, 15000 kPa): 791.7 ± 0.7 kg/m3 | mass density ([1]; 323.15 K, 20000 kPa): 795.6 ± 0.7 kg/m3 | mass density ([1]; 323.15 K, 25000 kPa): 799.3 ± 0.8 kg/m3 | mass density ([1]; 323.15 K, 30000 kPa): 802.9 ± 0.9 kg/m3 | mass density ([1]; 333.15 K, 100 kPa): 770.6 ± 0.4 kg/m3 | mass density ([1]; 333.15 K, 5000 kPa): 775.1 ± 0.5 kg/m3 | mass density ([1]; 333.15 K, 10000 kPa): 779.6 ± 0.6 kg/m3 | mass density ([1]; 333.15 K, 15000 kPa): 783.9 ± 0.7 kg/m3 | mass density ([1]; 333.15 K, 20000 kPa): 787.9 ± 0.8 kg/m3 | mass density ([1]; 333.15 K, 25000 kPa): 791.8 ± 0.9 kg/m3 | mass density ([1]; 333.15 K, 30000 kPa): 795.5 ± 1 kg/m3

CCCO [propan-1-ol] + Cc1ccccc1
mass density ([2]; 303.15 K, 100 kPa): 795.6 ± 0.4 kg/m3 | mass density ([2]; 303.15 K, 5000 kPa): 799.5 ± 0.4 kg/m3 | mass density ([2]; 303.15 K, 10000 kPa): 803.4 ± 0.5 kg/m3 | mass density ([2]; 303.15 K, 15000 kPa): 807 ± 0.6 kg/m3 | mass density ([2]; 303.15 K, 20000 kPa): 810.5 ± 0.7 kg/m3 | mass density ([2]; 303.15 K, 25000 kPa): 813.9 ± 0.8 kg/m3 | mass density ([2]; 303.15 K, 30000 kPa): 817.2 ± 0.9 kg/m3 | mass density ([2]; 313.15 K, 100 kPa): 787.6 ± 0.4 kg/m3 | mass density ([2]; 313.15 K, 5000 kPa): 791.6 ± 0.5 kg/m3 | mass density ([2]; 313.15 K, 10000 kPa): 795.7 ± 0.5 kg/m3 | mass density ([2]; 313.15 K, 15000 kPa): 799.5 ± 0.6 kg/m3 | mass density ([2]; 313.15 K, 20000 kPa): 803.2 ± 0.7 kg/m3 | mass density ([2]; 313.15 K, 25000 kPa): 806.7 ± 0.8 kg/m3 | mass density ([2]; 313.15 K, 30000 kPa): 810.1 ± 0.9 kg/m3 | mass density ([2]; 323.15 K, 100 kPa): 779.1 ± 0.4 kg/m3 | mass density ([2]; 323.15 K, 5000 kPa): 783.4 ± 0.5 kg/m3 | mass density ([2]; 323.15 K, 10000 kPa): 787.7 ± 0.6 kg/m3 | mass density ([2]; 323.15 K, 15000 kPa): 791.7 ± 0.7 kg/m3 | mass density ([2]; 323.15 K, 20000 kPa): 795.6 ± 0.7 kg/m3 | mass density ([2]; 323.15 K, 25000 kPa): 799.3 ± 0.8 kg/m3 | mass density ([2]; 323.15 K, 30000 kPa): 802.9 ± 0.9 kg/m3 | mass density ([2]; 333.15 K, 100 kPa): 770.6 ± 0.4 kg/m3 | mass density ([2]; 333.15 K, 5000 kPa): 775.1 ± 0.5 kg/m3 | mass density ([2]; 333.15 K, 10000 kPa): 779.6 ± 0.6 kg/m3 | mass density ([2]; 333.15 K, 15000 kPa): 783.9 ± 0.7 kg/m3 | mass density ([2]; 333.15 K, 20000 kPa): 787.9 ± 0.8 kg/m3 | mass density ([2]; 333.15 K, 25000 kPa): 791.8 ± 0.9 kg/m3 | mass density ([2]; 333.15 K, 30000 kPa): 795.5 ± 1 kg/m3

Cc1ccccc1 [toluene]
mass density ([1]; 303.15 K, 100 kPa): 857.4 ± 0.3 kg/m3 | mass density ([1]; 303.15 K, 5000 kPa): 861.3 ± 0.3 kg/m3 | mass density ([1]; 303.15 K, 10000 kPa): 865.1 ± 0.4 kg/m3 | mass density ([1]; 303.15 K, 15000 kPa): 868.7 ± 0.4 kg/m3 | mass density ([1]; 303.15 K, 20000 kPa): 872.3 ± 0.5 kg/m3 | mass density ([1]; 303.15 K, 25000 kPa): 875.6 ± 0.6 kg/m3 | mass density ([1]; 303.15 K, 30000 kPa): 878.9 ± 0.6 kg/m3 | mass density ([1]; 313.15 K, 100 kPa): 848.1 ± 0.3 kg/m3 | mass density ([1]; 313.15 K, 5000 kPa): 852.1 ± 0.3 kg/m3 | mass density ([1]; 313.15 K, 10000 kPa): 856.2 ± 0.4 kg/m3 | mass density ([1]; 313.15 K, 15000 kPa): 860 ± 0.5 kg/m3 | mass density ([1]; 313.15 K, 20000 kPa): 863.7 ± 0.5 kg/m3 | mass density ([1]; 313.15 K, 25000 kPa): 867.2 ± 0.6 kg/m3 | mass density ([1]; 313.15 K, 30000 kPa): 870.7 ± 0.6 kg/m3 | mass density ([1]; 323.15 K, 100 kPa): 838.6 ± 0.3 kg/m3 | mass density ([1]; 323.15 K, 5000 kPa): 842.9 ± 0.3 kg/m3 | mass density ([1]; 323.15 K, 10000 kPa): 847.2 ± 0.4 kg/m3 | mass density ([1]; 323.15 K, 15000 kPa): 851.2 ± 0.5 kg/m3 | mass density ([1]; 323.15 K, 20000 kPa): 855.1 ± 0.5 kg/m3 | mass density ([1]; 323.15 K, 25000 kPa): 858.9 ± 0.6 kg/m3 | mass density ([1]; 323.15 K, 30000 kPa): 862.5 ± 0.7 kg/m3 | mass density ([1]; 333.15 K, 100 kPa): 829.2 ± 0.3 kg/m3 | mass density ([1]; 333.15 K, 5000 kPa): 833.7 ± 0.4 kg/m3 | mass density ([1]; 333.15 K, 10000 kPa): 838.2 ± 0.4 kg/m3 | mass density ([1]; 333.15 K, 15000 kPa): 842.5 ± 0.5 kg/m3 | mass density ([1]; 333.15 K, 20000 kPa): 846.6 ± 0.6 kg/m3 | mass density ([1]; 333.15 K, 25000 kPa): 850.5 ± 0.6 kg/m3 | mass density ([1]; 333.15 K, 30000 kPa): 854.3 ± 0.7 kg/m3
